Measurements from patent US12414969B2, “Methods and compositions for reducing clostridium difficile infection” (priority 2014, dated 2025).

Test system: C. difficile
Assay: Addition of secondary bile acids to culture media, C. difficile growth
Conditions: bile acid added to culture media

C[C@H](CCC(=O)O)[C@H]1CC[C@H]2[C@@H]3CC[C@@H]4C[C@H](O)CC[C@]4(C)[C@H]3C[C@H](O)[C@]12C [DCA, deoxycholic acid]
C. difficile growth inhibition in culture media: inhibits c. difficile growth
